Entries after “also recorded” stand apart in the source; their conditions may differ. Structures can show the parent of a compound that is named as a salt.

The subject of assay [1] is HIV-1 isolates resistant to other protease inhibitors. The note with it: read-out: ED50 dose for inhibiting viral replication; cited from earlier work.
The test system of assay [2] is Tat-stimulated TNF release in monocytes. As to the kind of experiment: Tat-stimulated TNF release by primary monocytes (ELISA). The note with it: Tat 100 nM, 4 h; CGS21680 1 μM; ATL313, ATL455 1-4 nM; hydrochloride. The assay is classed as cell-based, human. As for the experimental part:
Human primary monocytes were treated with Tat (100 nM) in the presence or absence of the A2AR agonist, CGS21680 (CGS; 1 μM) or the A2AR antagonist, ZM241385 (100 nM) for 4 h. TNF levels in culture supernatants were then quantitated by ELISA. Data represent mean+SEM of three replicates, from a single representative experiment
(§1) Primary monocytes were seeded in separate triplicate wells, and exposed independently to LPS (100 ng/ml), vehicle (NT) or Tat (100 nM) in the presence or absence of the A2AR agonist, CGS21680 (1 μM). After 4 h, cells were harvested. (A) TNF was measured in cell supernatants by ELISA Mean data values (±S.D.) are shown for the triplicate wells. (B) The corresponding cells from each well in panel A were lysed and subjected to qRTPCR analysis. Each cDNA sample was analyzed in quadruplicate. Assay results are presented as fold induction of gene expression, compared to untreated cells, after normalization to levels of GAPDH. Data represent mean±SD for each individual experimental replicate/well.
Human primary monocytes were treated with Tat (100 nM) in the presence or absence of the A2AR agonist, ATL313 (1-4 nM) or the A2AR antagonist, ATL455 (1-4 nM) for 4 h. TNF levels in culture supernatants were then quantitated by ELISA. […]
Human primary monocytes were treated with Tat (100 nM) in the presence or absence of the A2AR agonist, ATL313 (at the indicated doses) for 4 h. TNF levels in culture supernatants were then quantitated by ELISA. […]
(6) Primary monocytes. […] Results are compared for both populations, as well as purity (as assessed by immunophenotyping using CD14, CD68 and MHC class II).
The effect of an A2AR agonist on TNF release by primary human monocytes was also determined. Monocytes were stimulated with HIV-1 Tat, in the presence or absence of the A2AR agonist CGS21680 or the A2AR antagonist ZM251385 and TNF release was then measured in cell culture supernatants using an ELISA assay.
Quantitative real-time PCR analysis was used to measure TNF message levels in Tat-treated monocytes. […]
In general terms: ELISA stands for enzyme-linked immunosorbent assay.

Assay [3] has as its system iNOS expression in human primary monocytes. As to the kind of experiment: Tat-induced iNOS expression in primary monocytes. The assay is classed as cell-based. The note with it: co-treatment with Tat. As for the experimental part: (§2) The effect of adenosine receptor activation on Tat-induced upregulation of iNOS expression and NO release was then determined. […] In contrast, incubation of cells with 1 μM R-PIA (an adenosine A1 receptor agonist) had no effect on Tat-induced iNOS expression or NO release (FIG. 11), implicating the A2A and A3 receptor subtypes in this anti-inflammatory effect. ZM241385 (an A2AR antagonist) or MRS 1220 (an A3R antagonist) could prevent the anti-inflammatory effects of CGS21680 or IB-MECA, respectively.

Assay [4] deals with NO release by human primary monocytes. As to the kind of experiment: Tat-induced nitric oxide release by primary monocytes (Griess reaction). It is filed as cell-based. The note with it: co-treatment with Tat, 8 h; R-PIA 1 μM. As for the experimental part: Human primary monocytes were treated with Tat in the presence or absence of the indicated adenosine receptor agonists for 8 h, and nitric oxide levels in the culture medium of the cells were then quantitated using the Griess reaction (Active Motif). Data represent mean+SEM of three experiments.
as §2

In assay [5] the test system is TNF and IL1 mRNA in primary human monocytes. As to the kind of experiment: qRTPCR of inflammatory gene expression in Tat-exposed monocytes. It is filed as cell-based. The note with it: Tat 100 nM, CGS21680 1 μM, 4 h. As for the experimental part: as §1
Quantitative real-time PCR analysis was used to measure TNF message levels in Tat-treated monocytes. Primary human monocytes were prepared using CD14^+ immunomagnetic selection, and then exposed to LPS or to HIV-1 Tat for 4 hours, in the presence or absence of the A2AR agonist CGS21680. Culture supernatants were tested for TNF levels by ELISA assay (FIG. 13A), and RNA was extracted from cell pellets for quantitative reverse-transcription PCR (qRTPCR) analysis (FIG. 13B).
For orientation: Quantitative PCR measures a nucleic acid by following its amplification.

Assay [6] deals with rat cerebellar granule neurons (CGNs). As to the kind of experiment: Tat-induced apoptosis of cerebellar granule neurons (TUNEL). It is filed as cell-based. The note with it: Tat 500 nM, 48 h. The method, then:
CGNs were exposed to HIV-1 Tat (Tat, 500 nM), or vehicle alone (NT), in the presence or absence of the A2A antagonist, ZM241385. After 48 h, cultures were analyzed for the percentage of apoptotic cells using the TUNEL assay. Data represent mean±SEM for one experiment that was performed in triplicate; data are representative of two independent experiments.
CGNs were exposed to HIV-1 Tat (Tat, 500 nM), or vehicle alone (No Tat), in the presence or absence of the A2AR antagonists, ATL455 and ZM241385, or the A2AR agonists ATL313 and CGS21680. After 48 h, cultures were analyzed for the percentage of apoptotic cells using the TUNEL assay. Data represent mean±SEM for one experiment that was performed in triplicate; data are representative of two independent experiments.
(1) Primary rat cerebellar granule neurons (CGNs). CGNs represent a highly homogenous population of primary neurons which are susceptible to Tat and PAF-mediated cell killing and have been used in many of previous studies. CGN cells are isolated according to published procedures [Maggirwar, S. B., et al. 1999. J Neurochem 73:578-86] [Tong, N., et al. 2001. Eur J Neurosci 13:1913-22].
78(4): p. […] 22(6): p. 1102-6].
Primary rat cerebellar granule neurons (CGNs) were exposed to a neurotoxic concentration of HIV-1 Tat, in the presence or absence of an A2AR antagonist (ZM241385). […] It is important to note that CGNs express adenosine A2A receptors [Vacas, J., et al. 2003. Brain Res 992:272-280].
Primary cultures of rat cerebellar granule neurons (CGNs) were exposed to HIV-Tat ([…]) alone or together with increasing doses of the A2AR antagonist ATL-455 or A2A agonists ATL313 or CGS21680. Cells are treated with the test compounds for defined time intervals of up to 48 hours (1, 4, 8, 24, and 48 hours).

The test system of assay [7] is rat cortical neurons. The assay is classed as cell-based.
Procedure: Measuring production of intracellular ROS: Generation of ROS in response to Tat and PAF is assessed with the oxidizable dye indicator 5-(and-6)-chloromethyl-2′, 7′-dichlorodihydrofluorescein diacetate, acetyl ester (CM—H2DCFDA, abbreviated as “DCF”) (Molecular Probes, Eugene, Oreg.). Upon entering the cell by passive diffusion, the acetate groups are cleaved by intracellular esterases, and the thiol-reactive chloromethyl group binds to intracellular thiols, rendering the CM—H2DCF product trapped within the cell. […] [manufacturer's data] leaves the final fluorescent product CM-DCF, which is then imaged (excitation: 485, emission: 538) and quantitated in the same fashion as TMRM (above) as an indicator of relative levels of ROS in the culture.
The test system of assay [8] is rodent cortical cultures. As to the kind of experiment: FM1-43 vesicular uptake in cortical neuronal cultures. It is filed as cell-based, rat. The note with it: all doses of Tat. The method, then: (C) Moreover, activity dependent FM1-43 release by KC1 depolarization preferentially reduces the punctate vesicular labeling versus background signal. (D) In ≦14 and ≧14 day old primary neurons, 2.5 μg/ml Tat and 4.25 μg/ml Tat induces an increase in spontaneous activity dependent vesicular uptake, an effect that is both dose and culture age dependent.
Cortical neuronal cultures were treated with Tat or cPAF for varying periods of time as an in vitro model of pre-synaptic nerve terminal function, using the lipophilic, fluorescent styryl dye N-(3-triethylammoniumpropyl)-4-(4-(dibutylamino)styryl) pyridinium dibromide (FM1-43), which binds to synaptic vesicle membranes and is taken up into nerve terminals during normal activity (i.e., synaptic vesicle recycling). Fluorescent signal can be quantified to number of neurons, and after chemical depolarization with high concentrations of KC1, fluorescent signal is abolished, giving an index of nerve terminal activity in real-time. […] 68(7): p. 4628-35]. […]
FM1-43 uptake assay: Total spontaneous activity dependent vesicular uptake was assessed using the lipophilic styryl dye N-(3-triethylammoniumpropyl)-4-(4-(dibutylamino)styryl) pyridinium dibromide (FM1-43). […] Upon subsequent exocytosis, the vesicle fuses with the membrane, releasing its contents, and the FM1-43 dissociates back into the extracellular solution and loses its fluorescence. […]

For `COC(=O)N[C@H](C(=O)N[C@@H](Cc1ccccc1)[C@@H](O)CN(Cc1ccc(-c2ccccn2)cc1)NC(=O)[C@@H](NC(=O)OC)C(C)(C)C)C(C)(C)C` [Atazanvir, Atazanavir], in assay [1], the EC50 was 2 to 8 nM.

`CCNC(=O)[C@H]1O[C@@H](n2cnc3c(N)nc(NCCc4ccc(CCC(=O)O)cc4)nc32)[C@H](O)[C@@H]1O` [CGS21680, 4-[2-[[6-Amino-9-(N-ethyl-b-D-ribofuranuronamidosyl)-9H-purin-2yl]amino]ethyl]benzenepropanoic acid hydrochloride]: in assay [2], the “effect on Tat-induced monocyte activation (TNF release)” value was “abrogated; also recorded: strongly suppressed; also recorded: opposed”. For the same compound, the “inhibition of Tat-induced iNOS expression” value in assay [3] is on record as “roughly 50%”. Moreover, the “effect on Tat-induced NO secretion” value in assay [4] is “complete abrogation”. Also, in assay [5], the “effect on IL1 mRNA levels” value is “little effect” and the “effect on TNF transcription” value is “strongly suppressed”. Moreover, in assay [6], the “effect on Tat-induced neuronal apoptosis” value was “did not result in an increase in cell death”.

On to `OO` [H202, hydrogen peroxide], for which the “increase in ROS production” value in assay [7] is given as 90%.

In the case of `C[C@H](CCC(=O)NCCS(=O)(=O)O)[C@H]1CC[C@H]2[C@@H]3[C@@H](O)C[C@@H]4C[C@H](O)CC[C@]4(C)[C@H]3CC[C@]12C` [TUDCA, tauroursodeoxycholic acid], the “effect on Tat-induced increase in FM1-43 uptake” value in assay [8] is “completely blocked; also recorded: completely eliminated”.

(Values after patent US20080269161A1, “Compositions and Methods Relating to Mitochondrial Hyperpolarization in Neurological Disease” (priority 2005, published 2008).)
